Reference: patent publication US20230002798A1, “PROCESS FOR THE PREPARATION OF A FERMENTABLE SUGAR COMPOSITION AND THE FERMENTATION THEREOF” (WeissBioTech GmbH, priority 2019, published 2023)

Target: Agl1 (Bifidobacterium breve, UniProt C0JP82)
Test: Product inhibition of pNPG hydrolysis
Conditions: 2 mM pNPG

## OC[C@H]1O[C@H](O[C@H]2[C@H](O)[C@@H](O)C(O)O[C@@H]2CO)[C@H](O)[C@@H](O)[C@@H]1O (mixture of isomers) [maltose]
  IC50 (product inhibition): 100 mg/mL
